From patent publication US20070249648A1, “Novel Diazaspiroalkanes and Their Use for Treatment of Ccr8 Mediated Diseases” (priority 2003, published 2007)
Counter-ions that a name gives are not always drawn.

Molecular target: T1, human recombinant chemokine CCR8 receptor (Homo sapiens, UniProt P51685)
T1 construct: purchased Euroscreen ES-136-M; host or cells: CHO-K1 cells (membrane preparation)
Test: CCL1 SPA Binding Assay
Details: 125I CCL1 (30 pM) binding to membranes from CHO-K1 cells transfected with CCR8, Wheat Germ Agglutinin SPA beads; typical data
Description: Membranes from CHO-K1 cells transfected with human recombinant chemokine CCR8 receptor (ES-136-M) were purchased from Euroscreen. Membrane preparations are stored at −70C in 7.5 mM Tris-Cl pH 7.5, 12.5 mM MgCl2, 0.3 mM EDTA, 1 mM EGTA, 250 mM sucrose until used.
The CCR8 membranes ([…]) were preincubated with Wheat Germ Agglutinin SPA beads (4.05 mg/ml) in assay buffer (50 mM HEPES, 1 mM CaCl2x2H2O, 5 mM MgCl2x6H2O, 75 mM NaCl, 0.1% BSA) at pH=7.4 for 2 hours on ice. A 10-point dose-response curve (final concentrations 50 μM, 16.7 μM, 5.6 μM, 1.9 μM, 0.62 μM, 0.21 μM, 0.069 μM, 0.023 μM) was prepared by diluting compounds by serial dilution 1:3 in DMSO. In the screening plate (Polystyrene NBS plates, Costar Corning 3604) 1 μl from the DMSO solutions of compounds was transferred into each well. 1 μl of DMSO was added to the blank control wells and 1 μl unlabeled CCL1 (300 nM) was added to background control wells. 50 μl of the SPA bead-membrane mixture was added into each well. Finally, 50 μl (30 pM) ^125I CCL1 (2000 Ci/mM) was added to each well. Plates were then incubated at RT with shaking (700 rpm) for 90 minutes followed by 30 minutes at RT without shaking. The plate was read in a Wallac MicroBeta counter for 2 minutes/well.

T1 sequence (P51685 whole entry): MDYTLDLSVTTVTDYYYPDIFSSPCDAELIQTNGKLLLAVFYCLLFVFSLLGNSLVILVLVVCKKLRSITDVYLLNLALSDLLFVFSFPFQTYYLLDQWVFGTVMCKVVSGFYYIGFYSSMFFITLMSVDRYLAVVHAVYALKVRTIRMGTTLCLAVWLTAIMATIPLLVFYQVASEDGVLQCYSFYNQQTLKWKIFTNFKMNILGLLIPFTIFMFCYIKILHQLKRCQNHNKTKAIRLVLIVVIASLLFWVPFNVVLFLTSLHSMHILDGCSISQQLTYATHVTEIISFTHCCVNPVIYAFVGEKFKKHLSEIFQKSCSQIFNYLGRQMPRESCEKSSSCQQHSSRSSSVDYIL

Compound | IC50
Cc1noc(C)c1COc1ccccc1CN1CCC2(CC1)CCN(C(=O)c1ccccc1)CC2 [3-benzoyl-9-{2-[(3,5-dimethylisoxazol-4-yl)methoxy]benzyl}-3,9-diazaspiro[5.5]undecane trifluoroacetate] | 710 nM
CCCOc1ccccc1CN1CCC2(CC1)CCN(C(=O)c1ccccc1)CC2 [3-benzoyl-9-(2-propoxybenzyl)-3,9-diazaspiro[5.5]undecane trifluoroacetate] | 165 nM
